Results published in patent publication US20230010299A1, “HETEROCYCLIC TRPML1 AGONISTS” (LIBRA THERAPEUTICS, INC., priority 2019, published 2023).

Legend:
TRPML1 [1] = target: T1, TRPML1 (Homo sapiens, UniProt Q9GZU1); experiment: Cellular TRPML1 assay (FLIPR TETRA, GCaMP6f calcium read-out); assay type: cell-based; details: HEK T-REx/GCaMP6f/TRPML1 cells; Ca2+ response over 300 s, normalized to ML-SA1 50 μM; Ca2+ free or Optimem condition not given; read-out: Ec50 (Activity of TRPML1 agonists)
T1 construct: expressed in transfected cells
Procedure: Buffers and reagents • PBS (D-PBS without calcium and magnesium; EuroClone) • Trypsin (Trypsin 0.05%, EDTA 0.02% in PBS; EuroClone) • DMSO (Sigma) • Ca^2+ free Tyrode's buffer: in-house solution (130 mM NaCl, 5 mM KCl, 1 mM MgCl2, 5 mM NaHCO3, 20 mM HEPES in water at pH 7.4; sterile filtered). • Opti-MEM (Gibco) • Agonist: ML-SA1 (Sigma); stock: 60 mM in DMSO, stored at −20° C. • Blocker: ML-SI3 (in house synthesis); stock: 20 mM in DMSO, stored at −20° C.
The final clone for the TRPML1 assay is HEK T-REx/GCaMP6f/TRPML1.
GCaMP6f is a genetically encoded calcium indicator that is stably expressed in this cell line and used as a fluorescent read-out.
Experiments are performed in 384 MTP format. Cells are seeded at 15000 cells/well either in 25 μl/well of growth medium or in 20 μl/well of Optimem+0.5% FBS without selection antibiotics. Twenty-four hours later, cells are assayed for the response to various compounds using the Ca^2+ sensitive GCaMP6f protein stably expressed in the cells as readout.
The experiment is performed in a 384-well format according to the following procedures for either Ca^2+ free or Optimem conditions: • Ca^2+ free condition (in absence of extracellular Ca^2+): • 24 h after seeding, pre-incubate the cells at room temperature for about 10′. • Then remove the culture medium and replace it with 20 μL of Ca^2+ free Tyrode's buffer. • Start the experiment at the FLIPR^TETRA by injecting 10 μL/w of 3× concentrated test compounds and controls in Ca^2+ free Tyrode's buffer. Monitor the kinetic response over a period of 300 seconds. • Final DMSO concentration: 0.5% • Optimem condition (in presence of extracellular Ca^2+): • 24 h after seeding, pre-incubate the cells at room temperature for about 10′. • Start the experiment at the FLIPR^TETRA by injecting 10 μL/w of 3× concentrated test compounds and controls in Ca^2+ free Tyrode's buffer. Monitor the kinetic response over a period of 300 seconds. • Final DMSO concentration: 0.5%
Data from FLIPR^TETRA measurements are analyzed with the Genedata Screener® software.
Stimulator controls (Col 2): injection of ML-SA1 EC100 (50 μM) in alternated wells positions
Neutral controls (Col 2): injection of 0 mM Ca^2+ free Tyrode's buffer in alternated wells positions.
Test wells (Col 3-22): test compounds dose response curve from either 100 μM with 1:2 dilution steps or from 50 μM with 1:3.16 dilution steps.

TRPML1 [2] = target: T1, TRPML1; experiment: TRPML1 automated patch-clamp (QPatch 16X); assay type: cell-based; details: HEK T-REx/GcaMP6f/TRPML1 cells, current with compound/current in vehicle, extracellular pH 4.6
Procedure: TRPML1—Automated Patch-Clamp
HEK T-REx/GcaMP6f/TRPML1 cells were cultured in DMEM High Glucose (Lonza BioWhittaker cat. BE12-604F/U1; 500 mL) supplemented with Fetal Bovine Serum TET-FREE (Euroclone cat. EC S0182L; 50 mL, Penicillin-Streptomycin (BioWhittaker, cat. DE17-602E; 5 mL of 100× Solution), G418 (Sigma, cat. G8168; 0.25 mg/ml) and Zeocyn (InvivoGen, cat. ant-zn-1; 50 μg/ml).
HEK T-REx/GcaMP6f/TRPML1 cells were seeded 48 or 72 hours before experiment, at a concentration of 8*10^6/4*10^6 cells onto a T225 flask. Just before the experiments, cells were washed twice with D-PBS w/o Ca^2+/Mg^2+ (Euroclone cat. ECB4004L) and detached from the flask with trypsin-EDTA (Sigma cat. T4174; diluted 1/10). Cells were then re-suspended in the suspension solution: 25 mL EX-CELL ACF CHO medium(Sigma cat. C5467); 0.625 mL HEPES (Sigma cat. H0887); 0.25 mL of 100× Penicillin/Streptomycin (Euroclone cat. ECB3001D), 0.1 mL of Soybean Trypsin Inhibitor 10 mg/mL (Sigma cat. T6522) and placed on the QPatch 16X.
Dilution from stock were prepared just before the experiments in the extracellular solution (0.25% final DMSO concentration). DMSO solution was obtained from AppliChem (cat. A3672)
Patch Clamp Solutions: • Intracellular solution (mM): 120 CsMeSO3, 4 NaCl, 2 MgCl2, 10 EGTA, 20 HEPES, 2 Mg-ATP (pH 7.2 with CsOH). • Extracellular solution (mM): 140 NaGluconate, 5 KCl, 1 MgCl2, 2 CaCl2), 10 Glucose, 10 MES (pH 4.6 with HCl).
Patch Clamp Analysis—QPatch 16X
For the voltage clamp experiments on TRPML1, data were sampled at 5 KHz. After establishment of the seal and the passage in the whole cell configuration, the cells were held at −20 mV and the TRPML1 current was evoked using the voltage protocol illustrated in FIG. 2, applied every 5 sec. (50 ms at −20 mV; 20 ms at −120 mV, 1000 ms ramp from −120 to […]; 20 ms at +40 mV, and back to −20 mV); in the absence (vehicle period, i.e. 0.25% DMSO) and in the presence of increasing concentrations (3) of the compound under investigation.
Agonists: For data collection, the Sophion proprietary software was used and the analysis was performed off-line using Excel and GraphPad Prism (V 8.00). Results are reported in Table 6, expressed as TRPML1 current fold increase evoked by the compound under investigation (i.e. current in the presence of the compound/current in vehicle).

T1 sequence (Q9GZU1 whole entry): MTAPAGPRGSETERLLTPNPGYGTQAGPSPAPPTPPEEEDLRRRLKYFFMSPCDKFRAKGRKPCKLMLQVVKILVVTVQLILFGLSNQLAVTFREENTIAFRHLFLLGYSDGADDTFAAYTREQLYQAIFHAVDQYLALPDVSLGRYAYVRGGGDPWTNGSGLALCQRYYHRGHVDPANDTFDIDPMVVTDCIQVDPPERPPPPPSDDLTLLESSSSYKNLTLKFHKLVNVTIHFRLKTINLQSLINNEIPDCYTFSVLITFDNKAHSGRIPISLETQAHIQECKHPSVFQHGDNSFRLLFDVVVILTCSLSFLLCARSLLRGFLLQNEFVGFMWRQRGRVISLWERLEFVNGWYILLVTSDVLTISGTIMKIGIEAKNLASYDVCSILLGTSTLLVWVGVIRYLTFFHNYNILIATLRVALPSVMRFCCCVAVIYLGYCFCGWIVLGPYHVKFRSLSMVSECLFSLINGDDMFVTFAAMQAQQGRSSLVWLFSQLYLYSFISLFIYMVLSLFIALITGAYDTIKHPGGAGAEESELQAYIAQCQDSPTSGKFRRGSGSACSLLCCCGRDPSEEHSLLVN

EC50 (TRPML1 [1])	Qpatch Assay TRPML1 agonism Current fold increase Mean ± SEM (n) (TRPML1 [2]; 0.3 μM compound)	Qpatch Assay TRPML1 agonism Current fold increase Mean ± SEM (n) (TRPML1 [2]; 3.0 μM compound)	Qpatch Assay TRPML1 agonism Current fold increase Mean ± SEM (n) (TRPML1 [2]; 30 μM compound)	Compound
5.9 µM	2.5 ± 1.3 (3)	12.5 ± 8.6 (3)	138 ± 55.7 (3)	CCCN(C)C(=O)N1CCN(c2ccccc2NS(=O)(=O)c2ccc(S(=O)(=O)N(C)C)cc2)CC1 [Example 82, 4-{2-[4-(dimethylsulfamoyl)benzenesulfonamido]phenyl}-N-methyl-N-propylpiperazine-1-carboxamide]
3.2 µM	0.5 ± 0.3 (3)	22.5 ± 10.6 (3)	656.7 ± 150.5 (3)	CCOC(=O)N1CCN(c2ccccc2NS(=O)(=O)c2ccc(S(=O)(=O)N(C)C)cc2)CC1 [Example 70, ethyl4-{2-[4-(dimethylsulfamoyl)benzenesulfonamido]phenyl}piperazine-1-carboxylate]
1.7 µM	0.042 ± 0.153 (2)	0.86 ± 0.60 (2)	4.3 ± 0.9 (2)	CN(C)S(=O)(=O)c1ccc(S(=O)(=O)NC2CCCCC2N2CCC(Oc3ccccc3)CC2)cc1 (single isomer, unassigned) [Example 63, N1,N1-dimethyl-N4-[2-(4-phenoxypiperidin-1-yl)cyclohexyl]benzene-1,4-disulfonamide]
4 µM	–	–	–	CN(C)S(=O)(=O)c1ccc(S(=O)(=O)Nc2ccccc2N2CCOC(Cc3ccccc3)C2)cc1 (stereo not drawn) [Example 101, N1-(2-(2-benzylmorpholino)phenyl)-N4,N4-dimethylbenzene-1,4-disulfonamide]
2.6 µM	–	–	–	CN(C)S(=O)(=O)c1ccc(S(=O)(=O)Nc2ccccc2N2CCC(F)CC2)cc1 [Example 44, N1-(2-(4-fluoropiperidin-1-yl)phenyl)-N4,N4-dimethylbenzene-1,4-disulfonamide]
47.4 µM	–	–	–	CN(C)S(=O)(=O)c1ccc(S(=O)(=O)Nc2ccccc2N2CCc3ccccc3C2)cc1 [Example 9, N1,N1-dimethyl-N4-[2-(1,2,3,4-tetrahydroisoquinolin-2-yl)phenyl]benzene-1,4-disulfonamide]
50 µM	–	–	–	CN(C)S(=O)(=O)c1ccc(S(=O)(=O)Nc2ccccc2CN2CCCCC2)cc1 [Example 30, N1,N1-dimethyl-N4-(2-(piperidin-1-ylmethyl)phenyl)benzene-1,4-disulfonamide]
6.3 µM	–	–	–	CN(C)S(=O)(=O)c1ccc(S(=O)(=O)Nc2ccccc2N2CCC(c3ccccc3)C2)cc1 (stereo not drawn) [Example 37, N1,N1-dimethyl-N4-[2-(3-phenylpyrrolidin-1-yl)phenyl]benzene-1,4-disulfonamide]
2.3 µM	–	–	–	CC(C)c1ccc(S(=O)(=O)Nc2ccccc2N2CCC(C(=O)OC(C)(C)C)CC2)cc1 [Example 29, tert-butyl 1-(2-((4-isopropylphenyl)sulfonamido)phenyl)piperidine-4-carboxylate]
10.7 µM	–	–	–	Cc1ccc(S(=O)(=O)Nc2ccccc2N2CCN(C(=O)OC(C)(C)C)CC2)c2cccnc12 [Example 95, tert-butyl 4-(2-((8-methylquinoline)-5-sulfonamido)phenyl)piperazine-1-carboxylate]
18 µM	–	–	–	COC(=O)C1CCN(c2ccccc2NS(=O)(=O)c2ccc(S(=O)(=O)N(C)C)cc2)CC1 [Example 105, methyl 1-(2-((4-(N,N-dimethylsulfamoyl)phenyl)sulfonamido)phenyl)piperidine-4-carboxylate]
2.4 µM	–	–	–	CC1Cc2cc(S(=O)(=O)Nc3ccccc3N3CCN(C(=O)OC(C)(C)C)CC3)ccc2O1 (racemic) [Example 92, tert-butyl 4-(2-((2-methyl-2,3-dihydrobenzofuran)-5-sulfonamido)phenyl)piperazine-1-carboxylate]
2.8 µM	–	–	–	Cc1cc(S(=O)(=O)Nc2ccccc2N2CCC(Oc3ccccn3)CC2)c(C)s1 [Example 97, 2,5-dimethyl-N-(2-(4-(pyridin-2-yloxy)piperidin-1-yl)phenyl)thiophene-3-sulfonamide]
6 µM	–	–	–	CC(C)Oc1ccc(S(=O)(=O)Nc2ccccc2N2CCC(C(=O)OC(C)(C)C)CC2)cc1 [Example 31, tert-butyl 1-(2-((4-isopropoxyphenyl)sulfonamido)phenyl)piperidine-4-carboxylate]
6.1 µM	–	–	–	CN(C)S(=O)(=O)c1ccc(S(=O)(=O)NC2CCCCC2N2CCC(c3ccccc3)CC2)cc1 (stereo not drawn) [Example 55, N1,N1-dimethyl-N4-[2-(4-phenylpiperidin-1-yl)cyclohexyl]benzene-1,4-disulfonamide]
59.1 µM	–	–	–	CN(C(=O)c1ccc(S(=O)(=O)N(C)C)cc1)c1ccccc1N1CCCCC1 [Example 15, 4-(dimethylsulfamoyl)-N-methyl-N-[2-(piperidin-1-yl)phenyl]benzamide]
5.6 µM	–	–	–	COC1CCCN(c2ccccc2NS(=O)(=O)c2ccc(S(=O)(=O)N(C)C)cc2)CC1 (single isomer, unassigned) [Example 42, N1-(2-(4-methoxyazepan-1-yl)phenyl)-N4,N4-dimethylbenzene-1,4-disulfonamide]
8.6 µM	–	–	–	CN(C)S(=O)(=O)c1ccc(S(=O)(=O)Nc2ccccc2N2CCC(Oc3ccncc3)CC2)cc1 [Example 106, N1,N1-dimethyl-N4-(2-(4-(pyridin-4-yloxy)piperidin-1-yl)phenyl)benzene-1,4-disulfonamide]
8.4 µM	–	–	–	CN(C)S(=O)(=O)c1ccc(S(=O)(=O)Nc2ccccc2N2CC3CCC2C3)cc1 (stereo not drawn) [Example 4, N4-(2-{2-azabicyclo[2.2.1]heptan-2-yl}phenyl)-N1,N1-dimethylbenzene-1,4-disulfonamide]
17.3 µM	–	–	–	CCC(=O)N1CCN(c2ccccc2NS(=O)(=O)c2ccc(S(=O)(=O)N(C)C)cc2)CC1 [Example 71, N1,N1-dimethyl-N4-[2-(4-propanoylpiperazin-1-yl)phenyl]benzene-1,4-disulfonamide]
3.5 µM	–	–	–	CCc1ccc(S(=O)(=O)Nc2ccccc2N2CCN(C(=O)OC(C)(C)C)CC2)cc1 [Example 18, tert-butyl 4-(2-((4-ethylphenyl)sulfonamido)phenyl)piperazine-1-carboxylate]
